Assay results taken from patent US10544120B2, “Biaryl kinase inhibitors” (BRISTOL-MYERS SQUIBB COMPANY, priority 2015, dated 2020).
pIC50: −log10 of the molar value.

The compounds below were run against GST-Xa-hAAK1 (Homo sapiens (Human), UniProt Q2M2I8) (assay: AAK1 Kinase Assay). Settings: bacterially expressed GST-Xa-hAAK1 3.5 nM; ATP 22 μM; fluoresceinated peptide 1.5 μM; 3 hours at room temperature; Caliper LabChip 3000.
Format: biochemical
Method: The assays were performed in U-bottom 384-well plates. […] The reactions were initiated by the combination of bacterially expressed, GST-Xa-hAAK1 with substrates and test compounds. The reactions were incubated at room temperature for 3 hours and terminated by adding 60 μl of 35 mM EDTA buffer to each sample. The reactions were analyzed on the Caliper LabChip 3000 (Caliper, Hopkinton, Mass.) by electrophoretic separation of the fluorescent substrate and phosphorylated product. […] Compounds were dissolved at 10 mM in dimethylsulfoxide (DMSO) and evaluated at eleven concentrations. IC50 values were derived by non-linear regression analysis.

GST-Xa-hAAK1, sequence (Q2M2I8 whole entry): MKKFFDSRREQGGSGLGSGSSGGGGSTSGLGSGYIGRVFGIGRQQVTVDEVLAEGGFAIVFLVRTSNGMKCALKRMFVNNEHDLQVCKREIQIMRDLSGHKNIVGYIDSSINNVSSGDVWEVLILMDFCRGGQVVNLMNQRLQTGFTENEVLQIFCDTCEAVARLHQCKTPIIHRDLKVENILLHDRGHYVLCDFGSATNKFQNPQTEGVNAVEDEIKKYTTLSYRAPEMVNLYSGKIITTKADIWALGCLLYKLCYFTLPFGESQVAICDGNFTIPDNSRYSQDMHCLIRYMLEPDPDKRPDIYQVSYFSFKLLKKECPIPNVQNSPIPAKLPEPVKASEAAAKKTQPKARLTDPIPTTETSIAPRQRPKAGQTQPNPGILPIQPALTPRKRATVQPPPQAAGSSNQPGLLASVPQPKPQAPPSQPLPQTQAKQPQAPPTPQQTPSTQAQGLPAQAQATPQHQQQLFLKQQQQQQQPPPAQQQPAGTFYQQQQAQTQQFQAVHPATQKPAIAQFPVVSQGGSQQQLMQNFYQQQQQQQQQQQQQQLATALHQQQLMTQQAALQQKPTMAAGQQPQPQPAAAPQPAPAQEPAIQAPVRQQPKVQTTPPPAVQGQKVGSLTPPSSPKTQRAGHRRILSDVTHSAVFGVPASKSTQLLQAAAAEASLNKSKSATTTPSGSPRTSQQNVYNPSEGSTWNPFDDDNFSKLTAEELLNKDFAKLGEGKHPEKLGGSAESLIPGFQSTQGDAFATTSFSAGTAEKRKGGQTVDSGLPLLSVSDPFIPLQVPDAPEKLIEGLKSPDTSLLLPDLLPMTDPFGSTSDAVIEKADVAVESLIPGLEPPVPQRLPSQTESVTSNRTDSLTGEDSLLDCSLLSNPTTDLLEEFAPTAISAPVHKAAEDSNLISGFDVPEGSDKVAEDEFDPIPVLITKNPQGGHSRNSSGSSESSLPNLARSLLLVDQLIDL

Row | SMILES | pIC50
1 | CC(C)C[C@](C)(N)COc1ccc(-c2ccnc(O)n2)cc1C(F)(F)F [Example 317, (S)-4-(4-((2-amino-2,4-dimethylpentyl)oxy)-3 (trifluoromethyl)phenyl)pyrimidin-2-ol] | 6.99
2 | Cc1cc(-c2ccc(OC[C@@](C)(N)CC(C)C)c(C#N)c2)ncn1 [Example 436, (S)-2-((2-amino-2,4-dimethylpentyl)oxy)-5-(6-methylpyrimidin-4-yl)benzonitrile] | 8.21
3 | CC(C)C[C@](C)(N)COc1ccc(-c2ccnc(C(F)F)n2)cc1C#N [Example 315, (S)-2-((2-amino-2,4-dimethylpentyl)oxy)-5-(2-(difluoromethyl)pyrimidin-4-yl)benzonitrile] | 8.82
4 | COC(=O)Nc1cc(-c2ccc(OCC(N)(CC(C)C)C(F)(F)F)c(C)n2)ccn1 (stereo not drawn) [Example 273, methyl 5-(2-amino-4-methyl-2-(trifluoromethyl)pentyloxy)-6-methyl-2,4′-bipyridin-2′-ylcarbamate] | 6.65
5 | Cc1nccc(-c2cnc(OCC(N)(CC(C)C)C(F)(F)F)c(C)c2)n1 (stereo not drawn) [Example 274, 1,1,1-trifluoro-4-methyl-2-(((3-methyl-5-(2-methylpyrimidin-4-yl)pyridin-2-yl)oxy)methyl)pentan-2-amine] | 6.01
6 | COC(=O)Nc1nccc(-c2ccc(OC[C@@](C)(N)CC(C)C)c(Cl)c2)n1 [Example 307, (S)-methyl (4-(4-((2-amino-2,4-dimethylpentyl)oxy)-3-chlorophenyl)pyrimidin-2-yl)carbamate] | 9.05
7 | Cc1cc(-c2ccnc(F)c2)ncc1OC[C@@](C)(N)CC(C)C [Example 344, (S)-1-((2′-fluoro-4-methyl-[2,4′-bipyridin]-5-yl)oxy)-2,4-dimethylpentan-2-amine] | 7.59
8 | COC(=O)Nc1cc(-c2ccc(OC[C@@](C)(N)CC(C)C)c(Cl)c2)cnn1 [Example 301, (S)-methyl (5-(4-((2-amino-2,4-dimethylpentyl)oxy)-3-chlorophenyl)pyridazin-3-yl)carbamate] | 7.24
9 | CC(C)C[C@](C)(N)COc1ccc(-c2ccnc(CF)c2)nc1CF [Example 324, (S)-1-((2′,6-bis(fluoromethyl)-[2,4′-bipyridin]-5-yl)oxy)-2,4-dimethylpentan-2-amine] | 8.32
10 | Cc1nccc(-c2cnc(OC[C@@](C)(N)CC(C)C)c(C)c2)n1 [Example 268, (S)-2,4-dimethyl-1-((3-methyl-5-(2-methylpyrimidin-4-yl)pyridin-2-yl)oxy)pentan-2-amine] | 7.96
11 | COc1cc(-c2cnc(OC[C@@](C)(N)CC(C)C)c(C#N)c2)ccn1 [Example 385, (S)-6-((2-amino-2,4-dimethylpentyl)oxy)-2′-methoxy-[3,4′-bipyridine]-5-carbonitrile] | 7.30
12 | COC(=O)Nc1nccc(-c2cc(F)c(OC[C@@](C)(N)CC(C)C)cc2F)n1 [Example 508, (S)-methyl (4-(4-((2-amino-2,4-dimethylpentyl)oxy)-2,5-difluorophenyl)pyrimidin-2-yl)carbamate] | 7.60
13 | CC(C)C[C@](C)(N)COc1ccc(-c2ccnc(C(C)C)n2)cc1F [Example 337, (S)-1-(2-fluoro-4-(2-isopropylpyrimidin-4-yl)phenoxy)-2,4-dimethylpentan-2-amine] | 6.05
14 | Cc1cc(-c2ccc(OC[C@@](C)(N)CC(C)C)c(C(F)(F)F)c2)ncn1 [Example 309, (S)-2,4-dimethyl-1-(4-(6-methylpyrimidin-4-yl)-2-(trifluoromethyl)phenoxy)pentan-2-amine] | 8.07
15 | CCc1cc(-c2ccc(OC[C@@](C)(N)CC(C)C)c(C(F)(F)F)c2)ncn1 [Example 444, (S)-1-(4-(6-ethylpyrimidin-4-yl)-2-(trifluoromethyl)phenoxy)-2,4-dimethylpentan-2-amine] | 6.82
16 | Cc1cc(-c2cnc(OC[C@@](C)(N)CC(C)C)c(Cl)c2)ncn1 [Example 445, (S)-1-((3-chloro-5-(6-methylpyrimidin-4-yl)pyridin-2-yl)oxy)-2,4-dimethylpentan-2-amine] | 7.21
17 | Cc1nc(-c2ccnc(Cl)n2)ccc1OC[C@@](C)(N)CC(C)C [Example 451, (S)-1-((6-(2-chloropyrimidin-4-yl)-2-methylpyridin-3-yl)oxy)-2,4-dimethylpentan-2-amine] | 8.57
18 | Cc1nccc(-c2ccc(OC[C@@](C)(N)CC(C)C)c(CF)n2)n1 [Example 279] | 7.64
19 | Cc1cc(-c2ccc(OC[C@@](C)(N)CC(C)C)c(C(F)F)c2)ncn1 [Example 350, (S)-1-(2-(difluoromethyl)-4-(6-methylpyrimidin-4-yl)phenoxy)-2,4-dimethylpentan-2-amine] | 7.41
20 | COC(=O)Nc1nccc(-c2ccc(OC[C@@](C)(N)CC(C)C)cc2)n1 [Example 505, (S)-methyl (4-(4-((2-amino-2,4-dimethylpentyl)oxy)phenyl)pyrimidin-2-yl)carbamate] | 8.06

Row | SMILES | pIC50
21 | Cc1cc(-c2ccc(OC[C@@](C)(N)CC(C)C)c(C)c2)ncn1 [Example 384, (S)-2,4-dimethyl-1-(2-methyl-4-(6-methylpyrimidin-4-yl)phenoxy)pentan-2-amine] | 7.34
22 | Cc1cc(-c2cc(F)c(OC[C@@](C)(N)CC(C)C)cc2F)ncn1 [Example 435, (S)-1-(2,5-difluoro-4-(6-methylpyrimidin-4-yl)phenoxy)-2,4-dimethylpentan-2-amine] | 7.20
23 | CCOC(=O)Nc1nccc(-c2ccc(OC[C@@](C)(N)CC(C)C)c(C(F)(F)F)c2)n1 [Example 314, (S)-ethyl (4-(4-((2-amino-2,4-dimethylpentyl)oxy)-3-(trifluoromethyl)phenyl)pyrimidin-2-yl)carbamate] | 8.92
24 | CC(C)C[C@](C)(N)COc1ccc(-c2ccnc(C(F)(F)F)n2)cc1F [Example 331, (S)-1-(2-fluoro-4-(2-(trifluoromethyl)pyrimidin-4-yl)phenoxy)-2,4-dimethylpentan-2-amine] | 7.35
25 | Cc1cc(-c2cc(C)c(OC[C@@](C)(N)CC(C)C)cn2)ncn1 [Example 450, (S)-2,4-dimethyl-1-((4-methyl-6-(6-methylpyrimidin-4-yl)pyridin-3-yl)oxy)pentan-2-amine] | 6.90
26 | Cc1cc(-c2cc(N)ncn2)ccc1OC[C@@](C)(N)CC(C)C [Example 431, (S)-6-(4-((2-amino-2,4-dimethylpentyl)oxy)-3-methylphenyl)pyrimidin-4-amine] | 8.27
27 | CC(C)C[C@](C)(N)COc1ccc(-c2ccnc(CF)c2)nc1C(F)F [Example 355, (S)-1-((6-(difluoromethyl)-2′-(fluoromethyl)-[2,4′-bipyridin]-5-yl)oxy)-2,4-dimethylpentan-2-amine] | 8.96
28 | COC(=O)Nc1nccc(-c2cnc(OC[C@@](C)(N)CC(C)C)c(Cl)c2)n1 [Example 375, (S)-methyl (4-(6-((2-amino-2,4-dimethylpentyl)oxy)-5-chloropyridin-3-yl)pyrimidin-2-yl)carbamate] | 8.59
29 | COc1cc(-c2ccc(OC[C@@](C)(N)CC(C)C)c(C(F)(F)F)c2)ncn1 [Example 440, (S)-1-(4-(6-methoxypyrimidin-4-yl)-2-(trifluoromethyl)phenoxy)-2,4-dimethylpentan-2-amine] | 6.51
30 | COC(=O)Nc1nccc(-c2cnc(OC[C@@](C)(N)CC(C)C)cc2C)n1 [Example 374, (S)-methyl (4-(6-((2-amino-2,4-dimethylpentyl)oxy)-4-methylpyridin-3-yl)pyrimidin-2-yl)carbamate] | 6.47
31 | CCc1cc(-c2cnc(OC[C@@](C)(N)CC(C)C)c(C)c2)ncn1 [Example 447, (S)-1-((5-(6-ethylpyrimidin-4-yl)-3-methylpyridin-2-yl)oxy)-2,4-dimethylpentan-2-amine] | 6.52
32 | COC(=O)Nc1cc(-c2ccc(OC[C@@](C)(N)CC(C)C)c(C(F)(F)F)c2)ncn1 [Example 432, (S)-methyl (6-(4-((2-amino-2,4-dimethylpentyl)oxy)-3-(trifluoromethyl)phenyl)pyrimidin-4-yl)carbamate] | 9.15
33 | CC(C)C[C@](C)(N)COc1ccc(-c2ccnc(Cl)n2)cc1C#N [Example 378, (S)-2-((2-amino-2,4-dimethylpentyl)oxy)-5-(2-chloropyrimidin-4-yl)benzonitrile] | 8.85
34 | Cc1cc(-c2ccnc(C(F)(F)F)n2)ccc1OC[C@@](C)(N)CC(C)C [Example 330, (S)-2,4-dimethyl-1-(2-methyl-4-(2-(trifluoromethyl)pyrimidin-4-yl)phenoxy)pentan-2-amine] | 8.14
35 | CC(C)CC(=O)Nc1cc(-c2ccc(OC[C@@](C)(N)CC(C)C)c(C(F)(F)F)c2)ccn1 [Example 395, (S)-N-(4-(4-((2-amino-2,4-dimethylpentyl)oxy)-3-(trifluoromethyl)phenyl)pyridin-2-yl)-3-methylbutanamide] | 9.15
36 | Cc1nccc(-c2ccc(OC[C@@](C)(N)CC(C)C)c(C)c2)n1 [Example 329, (S)-2,4-dimethyl-1-(2-methyl-4-(2-methylpyrimidin-4-yl)phenoxy)pentan-2-amine] | 8.62
37 | CC(C)C[C@](C)(N)COc1ccc(-c2ccnc(C(F)(F)F)n2)cc1C#N [Example 474, (S)-2-(2-amino-2,4-dimethylpentyloxy)-5-(2-(trifluoromethyl)pyrimidin-4-yl)benzonitrile] | 8.18
38 | COc1cc(-c2ccc(OC[C@@](C)(N)CC(C)C)c(C(F)F)c2)ccn1 [Example 383, (S)-1-(2-(difluoromethyl)-4-(2-methoxypyridin-4-yl)phenoxy)-2,4-dimethylpentan-2-amine] | 8.70
39 | Cc1nccc(-c2ccc(OC[C@@](C)(N)CC(C)C)c(C(F)(F)F)c2)n1 [Example 290, (S)-2,4-dimethyl-1-(4-(2-methylpyrimidin-4-yl)-2-(trifluoromethyl)phenoxy)pentan-2-amine] | 9.22
